Source: paper PMC8060642, “Cloning, Expression, Characterization, and Antioxidant Protection of Glutaredoxin3 From Psychrophilic Bacterium Psychrobacter sp. ANT206” (Frontiers in Microbiology, 2021)

Each molecule was assayed on T1, Ps-Grx3 (assay: GR-coupled NADPH oxidation at […] nm, Lineweaver-Burk). Details: 100 mM Tris-HCl pH 8.0, 25 °C; 1.0 mM GSH, 0.2 mM NADPH, 0.6 μg/mL GR; substrate 0.5-2.0 mM.
T1 construct: full length, 87 residues (264 bp ORF), class I dithiol Grx with CPYC motif
Format: biochemical, Psychrobacter sp. ANT206

| Km [µM] | SMILES |
| --- | --- |
| 650 | O=C1O[C@H]([C@@H](O)CO)C(=O)C1=O [DHA, dehydroascorbate] |
| 520 | N[C@@H](CSSC[C@H](N)C(=O)O)C(=O)O [L-cystine] |
| 790 | N[C@@H](CSS(=O)(=O)O)C(=O)O [S-sulfocysteine] |

| SMILES | Km [µM] |
| --- | --- |
| OCCSSCCO [HED, 2-Hydroxyethyl disulfide] | 690 |
